The values that follow come from ChEMBL document CHEMBL1153126, “Substituted tetrahydro-beta-carbolines as potential agents for the treatment of human papillomavirus infection” (Bioorg Med Chem Lett, 2010).

Data set [1] relates to Human papillomavirus type 16. Description: Antiviral activity against Human papillomavirus - 16 infected in human W12-20850 cells by hybrid capture method. As to conditions: Human papillomavirus 16, W12-20850. The data set is classed as functional, organism-based.
Data set [2] can be described thus: Cytotoxicity against HFF cells. In kind it is cell-based. The following applies: human.
Data set [3] is described as follows: Therapeutic index, CC50 for HFF cells to IC50 for Human papillomavirus - 16. As to conditions: read-out: TI. In kind it is cell-based.
Data set [4] is described as follows: Half life in rat at 1 mg/kg, iv. The data set is classed as ADME, organism-based. Further details: dose 1 mg/kg, route intravenous. As to conditions: in vivo.
Data set [5] in a line: Clearance in rat at 1 mg/kg, iv. On the set-up: dose 1 mg/kg, route intravenous. As to conditions: in vivo. The data set is classed as ADME, organism-based.
A short description of data set [6]: Oral bioavailability in mouse at 5 mg/kg. The data set is classed as ADME, organism-based. The following applies: in vivo.

For the compound `Cc1ccc(C2c3[nH]c4ccccc4c3CCN2S(C)(=O)=O)cc1` (stereo unspecified), the IC50 in data set [1] was determined as 23 µM. Moreover, the CC50 in data set [2] is greater than 100 µM.

In the case of `Cc1ccc(C2c3[nH]c4ccccc4c3CCN2CC(C)C)cc1` (stereo unspecified), in data set [1], the IC50 came to 25 µM. In data set [2], the midpoint of cytotoxicity, the CC50, lay at 50 µM.

In data set [1], `Cc1ccc(C2c3[nH]c4c(C)cccc4c3CCN2C(=O)CCc2ccccc2)cc1` (stereo unspecified) registered an IC50 of 2.2 µM. In addition, the CC50 in data set [2] is greater than 100 µM. In addition, in data set [3], the selectivity ratio was greater than 100.

Compound `COc1ccc(S(=O)(=O)N2CCc3c([nH]c4ccccc34)C2c2ccc(C)cc2)cc1` (stereo unspecified) had an IC50 in data set [1] of 66 µM. The compound further returned a CC50 in data set [2] greater than 100 µM.

On to `O=C(CCc1ccccc1)N1CCc2c([nH]c3ccccc23)C1COCc1ccccc1` (stereo unspecified), for which half-maximal inhibition in data set [1] (IC50) required 7.3 µM. Also, the CC50 in data set [2] was greater than 100 µM.

Turning to `O=C(CCc1ccccc1)N1CCc2c([nH]c3ccccc23)C1c1ccccc1` (stereo unspecified), in data set [1], it took 1.2 µM to reach half-maximal inhibition (IC50). This compound had a CC50 in data set [2] greater than 100 µM.

In data set [1], `CC(C)CC1c2[nH]c3ccccc3c2CCN1C(=O)CCc1ccccc1` (stereo unspecified) had an IC50 of 0.33 µM. The CC50 in data set [2] was 22 µM.

In data set [1], `COC(=O)C1c2[nH]c3ccccc3c2CCN1C(=O)CCc1ccccc1` (stereo unspecified) gave an IC50 of 20 µM. In addition, in data set [2], the CC50 was greater than 100 µM.

`O=C(OCC1c2[nH]c3ccccc3c2CCN1C(=O)CCc1ccccc1)N1CCCC1` (stereo unspecified) had an IC50 in data set [1] greater than 100 µM. Further, the CC50 in data set [2] is greater than 100 µM.

On to `CC(C)C[C@@H]1c2[nH]c3ccc(Cl)cc3c2CCN1C(=O)CCc1ccccc1`, for which the midpoint of inhibition in data set [1], the IC50, lay at 0.88 µM. Moreover, the CC50 in data set [2] is greater than 100 µM.

`Cc1ccc(C2c3[nH]c4ccc(F)cc4c3CCN2C(=O)CCc2ccccc2)cc1` (stereo unspecified) registered an IC50 in data set [1] of 0.44 µM. Further, the CC50 in data set [2] was greater than 100 µM. In data set [3], the selectivity ratio is greater than 100.

With `Cc1ccc([C@H]2c3[nH]c4ccc(Cl)cc4c3CCN2C(=O)CCc2ccccc2)cc1`, the IC50 in data set [1] was found to be 0.023 µM. The CC50 in data set [2] is greater than 100 µM. Further, in data set [4], the half-life was 6.2 h. The clearance in data set [5] came out at 3.6 mL/min/kg. In data set [6], this compound gave a bioavailability of 73%.

`Cc1ccc(C2c3[nH]c4ccccc4c3CCN2C(=O)CCc2cccnc2)cc1` (stereo unspecified) displayed an IC50 in data set [1] of 18 µM. Further, the CC50 in data set [2] worked out at 94 µM.

As to `Cc1ccc(C2c3[nH]c4ccc(Cl)cc4c3CCN2C(=O)CCc2ccccc2)cc1` (stereo unspecified), in data set [1], half-maximal inhibition (IC50) was put at 0.062 µM. This compound gave a CC50 in data set [2] greater than 100 µM. In data set [3], the selectivity ratio was greater than 100.

The compound `Cc1ccc(C2c3[nH]c4ccccc4c3CCN2C(=O)OCc2ccccc2)cc1` (stereo unspecified) came in with an IC50 in data set [1] of 0.9 µM. The compound also showed a 50% cytotoxic concentration (CC50) in data set [2] greater than 100 µM.

For `Cc1ccc(C2c3[nH]c4ccccc4c3CCN2C(=O)C#Cc2ccccc2)cc1` (stereo unspecified), the IC50 in data set [1] stood at 20 µM. The CC50 in data set [2] is greater than 100 µM.

`COc1ccc2c3c([nH]c2c1)C(c1ccc(C)cc1)N(C(=O)CCc1ccccc1)CC3` (stereo unspecified) registered an IC50 in data set [1] of 5.8 µM. In data set [2], this compound had a CC50 greater than 100 µM. Moreover, the selectivity ratio in data set [3] was greater than 100.

Take `Cc1ccc(C2c3[nH]c4ccccc4c3CCN2C(=O)Oc2cccc3ccccc23)cc1` (stereo unspecified): the IC50 in data set [1] was found to be 23 µM. In data set [2], this compound yielded a CC50 greater than 100 µM.

In data set [1], `Cc1ccc([C@@H]2c3[nH]c4ccc(Cl)cc4c3CCN2C(=O)CCc2ccccc2)cc1` yielded an IC50 of 7.7 µM. For the same compound, the CC50 in data set [2] was greater than 100 µM.

For `Cc1ccc(C2c3[nH]c4ccccc4c3CCN2C(=O)CCc2ccccc2)cc1` (stereo unspecified), in data set [1], the IC50 is 1.3 µM. In data set [2], this compound displayed a CC50 greater than 100 µM. Moreover, the selectivity ratio in data set [3] is 100.

In data set [1], `Cc1ccc(C2c3[nH]c4ccc(C)cc4c3CCN2C(=O)CCc2ccccc2)cc1` (stereo unspecified) registered an IC50 of 0.35 µM. Moreover, in data set [2], the CC50 was greater than 100 µM. For the same compound, the selectivity ratio in data set [3] was greater than 100.

As to `COC(=O)N1CCc2c([nH]c3ccccc23)C1c1ccc(C)cc1` (stereo unspecified), the IC50 in data set [1] stood at 1.7 µM. Moreover, in data set [2], half-maximal cytotoxicity (CC50) was put at 31 µM.

In turn, `Cc1ccc(C2c3[nH]c4cc(F)ccc4c3CCN2C(=O)CCc2ccccc2)cc1` (stereo unspecified) showed an IC50 in data set [1] of 1.7 µM. The same compound yielded a CC50 in data set [2] greater than 100 µM. For the same compound, the selectivity ratio in data set [3] was greater than 100.

`Cc1ccc(C2c3[nH]c4ccccc4c3CCN2C(=O)/C=C/c2ccccc2)cc1` (stereo unspecified) came in with a concentration for half-maximal inhibition (IC50) in data set [1] of 2.3 µM. For the same compound, the CC50 in data set [2] is greater than 100 µM.

In data set [1], `O=C(CCc1ccccc1)N1CCc2c([nH]c3ccccc23)C1CCc1ccccc1` (stereo unspecified) had an IC50 of 2.7 µM. The CC50 in data set [2] is greater than 100 µM.

For the compound `O=C(CCc1ccccc1)N1CCc2c([nH]c3ccccc23)C1CN1CCCC1` (stereo unspecified), the half-maximal cytotoxic concentration (CC50) in data set [2] came to 16 µM.

`Cc1ccc(C2c3[nH]c4ccccc4c3CCN2Cc2ccccc2)cc1` (stereo unspecified) came in with an IC50 in data set [1] of 5.8 µM. The compound further gave a CC50 in data set [2] of 94 µM.

In the case of `Cc1ccc(C2c3[nH]c4ccccc4c3CCN2C(=O)CCN(C)C)cc1` (stereo unspecified), the midpoint of inhibition in data set [1], the IC50, lay at 15 µM. In data set [2], this compound showed a CC50 of 40 µM.

In data set [1], `O=C(C1c2[nH]c3ccccc3c2CCN1C(=O)CCc1ccccc1)N1CCCC1` (stereo unspecified) had an IC50 greater than 100 µM. In data set [2], this compound yielded a CC50 greater than 100 µM.

`COc1ccc2[nH]c3c(c2c1)CCN(C(=O)CCc1ccccc1)C3c1ccc(C)cc1` (stereo unspecified) showed an IC50 in data set [1] of 0.57 µM. The CC50 in data set [2] is greater than 100 µM. In data set [3], the selectivity ratio is greater than 100.

The compound `CC(C)C[C@H]1c2[nH]c3ccc(Cl)cc3c2CCN1C(=O)CCc1ccccc1` showed an IC50 in data set [1] of 0.018 µM. This compound also gave a half-maximal cytotoxic concentration (CC50) in data set [2] greater than 100 µM.

In data set [1], `O=C(CCc1ccccc1)N1CCc2c([nH]c3ccccc23)C1COc1ccccc1` (stereo unspecified) gave an IC50 of 72 µM. In data set [2], the CC50 was greater than 100 µM.

For `O=C(CCc1ccccc1)N1CCc2c([nH]c3ccccc23)C1c1cccnc1` (stereo unspecified), the IC50 in data set [1] is greater than 100 µM. In addition, in data set [2], the CC50 was greater than 100 µM.
